Literature values as cited in patent US20190144909A1, “METHODS OF MODULATING BCKDH” (NESTEC S.A., priority 2016, published 2019).
“Also recorded” adds a separate entry of the source. Where two headings read alike, the source gives them in different places.

Tests used:
[1] = test system: branched-chain alpha-keto acid dehydrogenase kinase (BCKDH kinase)
[2] = test system: branched-chain alpha-keto acid dehydrogenase E1 B subunit (BCKDHB)
[3] = test system: branched-chain alpha-keto acid dehydrogenase E1 A subunit (BCKDHA)
[4] = test system: BCKDH kinase; settings: Shimomura et al. (2006) J. Nutr. 136: 250S-253S
[5] = BCKDHA, Table 1b, from Comparative Toxicogenomics Database
[6] = BCKDH kinase, Table 2, from Comparative Toxicogenomics Database
[7] = BCKDHB, Table 1a, from Comparative Toxicogenomics Database

## Clc1cc2c(cc1Cl)Oc1cc(Cl)c(Cl)cc1O2
[1]
  Interaction Actions: affects reaction/; also recorded: decreases expression; also recorded: affects expression
[2]
  Interaction Actions: affects expression
[3]
  Interaction Actions: affects expression; also recorded: affects cotreatment/; also recorded: increases expression

## c1cc2ccc3ccc4ccc5cccc6c(c1)c2c3c4c56 [1,12-benzoperylene]
[3]
  Interaction Actions: increases expression

## C#CC1(O)CC[C@H]2[C@@H]3C(O)C=C4CC(O)CC[C@]4(C)[C@H]3CC[C@@]21C (stereo partly shown) [17-ethynyl-5-androstene-3,7,17-triol]
[3]; [5]
  Interaction Actions: affects binding

## CC(=O)Nc1ccc(O)cc1 [Acetaminophen, reference compound]
[1]; [6]
  Interaction Actions: affects expression
[3]; [5]
  Interaction Actions: affects expression; also recorded: increases expression

## Cl.N [Ammonium Chloride]
[1]
  Interaction Actions: affects expression
[2]
  Interaction Actions: affects expression
[3]
  Interaction Actions: affects expression

## OC[C@H]1O[C@@H](Oc2ccc(O)cc2)[C@H](O)[C@@H](O)[C@@H]1O [Arbutin]
[1]; [6]
  Interaction Actions: decreases expression

## CCNc1nc(Cl)nc(NC(C)C)n1 [Atrazine]
[1]; [6]
  Interaction Actions: decreases expression
[3]; [5]
  Interaction Actions: increases expression

## c1ccc2c(c1)cc1ccc3cccc4ccc2c1c34 [Benzo(a)pyrene]
[2]; [7]
  Interaction Actions: affects expression/; also recorded: affects reaction; also recorded: increases expression

## CC(C)(c1ccc(O)cc1)c1ccc(O)cc1 [Bisphenol A]
[1]; [6]
  Interaction Actions: affects expression
[3]; [5]
  Interaction Actions: increases expression

## NC(=O)N1c2ccccc2C=Cc2ccccc21 [Carbamazepine, reference compound]
[3]; [5]
  Interaction Actions: affects expression

## ClC(Cl)(Cl)Cl [Carbon Tetrachloride]
[3]
  Interaction Actions: increases expression

## C=CC(=C)Cl [Chloroprene]
[3]
  Interaction Actions: increases expression

## CC(C)(Oc1ccc(Cl)cc1)C(=O)O [Clofibric Acid]
[1]; [6]
  Interaction Actions: affects cotreatment/; also recorded: affects expression

## [Cl-].[Cl-].[Co+2] [Cobaltous chloride]
[1]
  Interaction Actions: decreases expression

## [Cu] [Copper]
[1]
  Interaction Actions: affects binding/; also recorded: decreases expression

## O=C(NN=C1CCCCC1)C(=O)NN=C1CCCCC1 [Cuprizone, reference compound]
[2]
  Interaction Actions: increases expression

## CCCCOC(=O)c1ccccc1C(=O)OCCCC [Dibutyl Phthalate]
[1]; [6]
  Interaction Actions: decreases expression

## CCN(CC)N=O [Diethylnitrosamine]
[1]
  Interaction Actions: affects cotreatment/; also recorded: affects expression
[2]
  Interaction Actions: increases expression

## O=c1[nH]cc(F)c(=O)[nH]1 [Fluorouracil, reference compound]
[3]; [5]
  Interaction Actions: affects expression

## c1ccoc1 [Furan]
[3]
  Interaction Actions: affects binding

## OO [Hydrogen Peroxide]
[1]; [6]
  Interaction Actions: affects expression

## OCl [Hypochlorous Acid]
[1]; [6]
  Interaction Actions: decreases expression

## CNC1(c2ccccc2Cl)CCCCC1=O (stereo not shown) [Ketamine, reference compound]
[3]
  Interaction Actions: increases expression

## COCC(=O)O [Methoxyacetic acid]
[1]; [6]
  Interaction Actions: affects expression

## [CH3][Hg][Cl] [Methylmercuric chloride]
[2]
  Interaction Actions: increases expression
[3]
  Interaction Actions: increases expression

## C[C@@H]1Cc2c(Cl)cc(C(=O)N[C@@H](Cc3ccccc3)C(=O)O)c(O)c2C(=O)O1 [Ochratoxin A]
[1]
  Interaction Actions: decreases expression

## CC12CC1(C)C(=O)N(c1cc(Cl)cc(Cl)c1)C2=O (stereo not shown) [Procymidone]
[1]; [6]
  Interaction Actions: decreases expression

## [Na+].[Na+].[O]=[Cr](=[O])([O-])[O][Cr](=[O])(=[O])[O-] [Sodium bichromate]
[1]
  Interaction Actions: decreases expression

## C/C=C(/C)C(=O)O[C@H]1C(C)=C2[C@H]([C@@H]1OC(=O)CCCCCCC)[C@@](C)(OC(C)=O)C[C@H](OC(=O)CCC)[C@@]1(O)[C@H]2OC(=O)[C@@]1(C)O [Thapsigargin, reference compound]
[1]; [6]
  Interaction Actions: decreases expression

## CC[C@@]1(O)C(=O)OCc2c1cc1n(c2=O)Cc2cc3c(CN(C)C)c(O)ccc3nc2-1 [Topotecan, reference compound]
[3]; [5]
  Interaction Actions: affects response

## CCCC(CCC)C(=O)O [Valproic Acid, reference compound]
[1]; [6]
  Interaction Actions: affects expression
[2]; [7]
  Interaction Actions: affects expression; also recorded: increases expression
[3]; [5]
  Interaction Actions: affects expression

## CN[C@H](CC(C)C)C(=O)N[C@H]1C(=O)N[C@@H](CC(N)=O)C(=O)N[C@H]2C(=O)N[C@H]3C(=O)N[C@H](C(=O)N[C@H](C(=O)O)c4cc(O)cc(O)c4-c4cc3ccc4O)[C@H](O)c3ccc(c(Cl)c3)Oc3cc2cc(c3O[C@@H]2O[C@H](CO)[C@@H](O)[C@H](O)[C@H]2O[C@H]2C[C@](C)(N)[C@H](O)[C@H](C)O2)Oc2ccc(cc2Cl)[C@H]1O [Vancomycin, reference compound]
[2]
  Interaction Actions: increases expression
[3]
  Interaction Actions: increases expression

## C=CC1(C)OC(=O)N(c2cc(Cl)cc(Cl)c2)C1=O (stereo not shown) [Vinclozolin]
[3]; [5]
  Interaction Actions: increases expression

## Cc1cccc(Nc2cc(Cl)nc(SCC(=O)O)n2)c1C [pirinixic acid, reference compound]
[2]; [7]
  Interaction Actions: increases expression
[3]; [5]
  Interaction Actions: increases expression

## CC(C)CC(Cl)C(=O)O (stereo not drawn) [α-chloroisocaproic acid]
[4]
  inhibitor of BCKDH kinase: most potent known inhibitor of BCKDH kinase

## CC(C)CC(=O)C(=O)O [α-ketoisocaproic acid]
[4]
  inhibitor of BCKDH kinase: known physiological inhibitor of BCKDH kinase

## Tunicamycin [reference compound]
[1]
  Interaction Actions: decreases expression
[3]
  Interaction Actions: increases expression

## potassium chromate(VI)
[2]
  Interaction Actions: increases expression
